What was measured:
[1] = test system: DOCA-Na Hypertensive Rat Model; assay: Oral activity on systolic blood pressure in the DOCA-Na hypertensive rat model; format: in vivo, rat (Charles River male rats); settings: N 6
Protocol: That the compounds of this invention are active as blood pressure lowering agents can be seen from the administration of nat. 11R-methyl-16R-fluoro-9,15-dioxoprosta-(Z)-5-(E)-13-dienoic acid to rats by the following test:
Charles River male rats weighing 170-210 grams are used in the present study. DOCA-Na hypertension is induced in these rats by unilateral nephrectomy followed by subcutaneous implantation of a 25 mg deoxycorticosterone acetate pellet. Animals are placed in individual cages and receive 0.9% by weight sodium chloride aqueous solution and rat chow diet ad libitum. Two weeks are allowed to elapse from the time of surgery for development of hypertension, i.e. systolic blood pressure above 150 mmHg. Systolic blood pressure is measured indirectly from the tail of unanesthetized rats (restrained in holders heated for 5-10 minutes at 37°-38° C.) using a pneumatic pulse transducer (piezoelectric crystal and occluding cuff). The transducer and occluding cuff are coupled to a two-channel recorder. Control readings are taken prior to drug and at 1, 3, 6, 24, 48 and 72 hours post administration of drug. All drugs are prepared fresh in a mixture of tris(hydroxymethyl)amino methane in 95% ethanol (5% wt/V) and orally administered to rats. The placebo that was used was the mixture tris(hydroxymethyl)amino methane in ethanol without drug.

[2] = test system: conscious rat with acute gastric fistula (gastric secretion); assay: Anti-secretory activity in the conscious rat with acute gastric fistula; format: in vivo, rat (fasted female rats); settings: 16 μg/Kg i.v., N 3 (A), 2 (B)
Protocol: That the compounds of this invention are active as anti-secretory and anti-ulcerogenic agents can be seen by administering the following compounds: Compound A= nat 11R-methyl-16R-fluoro-15R-hydroxy-9-oxo-prost-(Z)-5-enoic acid. Compound b= nat 11R-methyl-16R-fluoro-9,15-dioxo-prost-(Z)-5-enoic acid to rats by the following test:
The compounds were tested as gastric secretory depressants in the unanesthetized rat with acute gastric fistula. […] On the day of the experiment, water infusion through the stomach was begun for a period of 60 minutes prior to drug administration. During this baseline period, the pH of the secretory flow was about 1.5 for each animal. Individual samples were collected at 10-minute intervals during this baseline period to monitor the pH. The compound dissolved in saline was administered intravenously (i.v.), 16 μg/Kg i.v., after this baseline period and samples were continuously collected for 60 minutes. The samples of gastric contents were subsequently assayed for pH, volume, total acid content (μ Eq/ml) and total acid output for 10 minutes (μ Eq/10 minutes).

[3] = 10 min after administration, rounded figures
[4] = 10 min after administration, rounded, 0 = no effect
[5] = 10 min after administration, rounded, 0 = no effect, or increase in the hydrogen ion concentration
[6] = 20 min after administration, rounded figures
[7] = 20 min after administration, rounded, 0 = no effect
[8] = 30 min after administration, rounded figures
[9] = 40 min after administration, rounded figures
[10] = 50 min after administration, rounded figures
[11] = 60 min after administration, rounded figures
[12] = 60 min after administration, rounded, 0 = no effect

`CCCC[C@@H](F)C(=O)/C=C/[C@H]1[C@H](C)CC(=O)[C@@H]1C/C=C\CCCC(=O)O` [nat 11R-methyl-16R-fluoro-9,15-dioxoprosta-5(Z),13(E)-dienoic acid] was tested, and the “Systolic Blood Pressure” value ([1]; 1.0 mg/kg p.o., 1 h) was 200±6 mmHg, the “Systolic Blood Pressure” value ([1]; 1.0 mg/kg p.o., 3 h) was 205±6 mmHg and the “Systolic Blood Pressure” value ([1]; 1.0 mg/kg p.o., 6 h) was 203±8 mmHg. For the same compound, the “Systolic Blood Pressure” value ([1]; 1.0 mg/kg p.o., 24 h) was 199±6 mmHg, the “Systolic Blood Pressure” value ([1]; 1.0 mg/kg p.o., time 0 h (control reading prior to drug)) was 196±6 mmHg and the “Systolic Blood Pressure” value ([1]; 5.0 mg/kg p.o., 1 h, * p<.05) was 175±2 mmHg. For the same compound, the “Systolic Blood Pressure” value ([1]; 5.0 mg/kg p.o., 3 h, * p<.05) was 167±4 mmHg, the “Systolic Blood Pressure” value ([1]; 5.0 mg/kg p.o., 6 h, * p<.05) was 166±3 mmHg and the “Systolic Blood Pressure” value ([1]; 5.0 mg/kg p.o., 24 h, * p<.05) was 163±4 mmHg. For the same compound, the “Systolic Blood Pressure” value ([1]; 5.0 mg/kg p.o., 48 h, * p<.05) was 171±7 mmHg, the “Systolic Blood Pressure” value ([1]; 5.0 mg/kg p.o., 72 h) was 193±6 mmHg and the “Systolic Blood Pressure” value ([1]; 5.0 mg/kg p.o., time 0 h (control reading prior to drug)) was 197±3 mmHg.

`CCCC[C@@H](F)[C@H](O)CC[C@H]1[C@H](C)CC(=O)[C@@H]1C/C=C\CCCC(=O)O` [Compound A, nat 11R-methyl-16R-fluoro-15R-hydroxy-9-oxo-prost-(Z)-5-enoic acid] was tested, and the “Acid Output, % Inhibition (calculated from μ Eq/10 min period of total acid output)” value [2, 3] was 4%, the “pH, % Increment over baseline” value [2, 3] was 5% and the “Volume, % Inhibition” value [2, 4] was 0%. For the same compound, the “Acid Conc., % Inhibition (calculated from μ Eq/ml of total acid concentration)” value [2, 5] was 0%, the “Acid Conc., % Inhibition (calculated from μ Eq/ml of total acid concentration)” value [2, 6] was 22% and the “Acid Output, % Inhibition (calculated from μ Eq/10 min period of total acid output)” value [2, 6] was 17%. For the same compound, the “pH, % Increment over baseline” value [2, 6] was 6%, the “Volume, % Inhibition” value [2, 7] was 0% and the “Acid Conc., % Inhibition (calculated from μ Eq/ml of total acid concentration)” value [2, 8] was 20%. For the same compound, the “Acid Output, % Inhibition (calculated from μ Eq/10 min period of total acid output)” value [2, 8] was 33%, the “Volume, % Inhibition” value [2, 8] was 58% and the “pH, % Increment over baseline” value [2, 8] was 4%. The “Acid Conc., % Inhibition (calculated from μ Eq/ml of total acid concentration)” value [2, 9] was 23%, the “Acid Output, % Inhibition (calculated from μ Eq/10 min period of total acid output)” value [2, 9] was 26% and the “Volume, % Inhibition” value [2, 9] was 21%. For the same compound, the “pH, % Increment over baseline” value [2, 9] was 5%, the “Acid Conc., % Inhibition (calculated from μ Eq/ml of total acid concentration)” value [2, 10] was 38% and the “Acid Output, % Inhibition (calculated from μ Eq/10 min period of total acid output)” value [2, 10] was 43%. For the same compound, the “Volume, % Inhibition” value [2, 10] was 9%, the “pH, % Increment over baseline” value [2, 10] was 9% and the “Acid Conc., % Inhibition (calculated from μ Eq/ml of total acid concentration)” value [2, 11] was 22%. The “Acid Output, % Inhibition (calculated from μ Eq/10 min period of total acid output)” value [2, 11] was 25%, the “pH, % Increment over baseline” value [2, 11] was 9% and the “Volume, % Inhibition” value [2, 12] was 0%.

With `CCCC[C@@H](F)C(=O)CC[C@H]1[C@H](C)CC(=O)[C@@H]1C/C=C\CCCC(=O)O` [Compound B, nat 11R-methyl-16R-fluoro-9,15-dioxo-prost-(Z)-5-enoic acid] the “Acid Output, % Inhibition (calculated from μ Eq/10 min period of total acid output)” value [2, 3] was 40%, the “pH, % Increment over baseline” value [2, 3] was 2% and the “Volume, % Inhibition” value [2, 4] was 9%. For the same compound, the “Acid Conc., % Inhibition (calculated from μ Eq/ml of total acid concentration)” value [2, 5] was 33%, the “Acid Conc., % Inhibition (calculated from μ Eq/ml of total acid concentration)” value [2, 6] was 6% and the “Acid Output, % Inhibition (calculated from μ Eq/10 min period of total acid output)” value [2, 6] was 22%. For the same compound, the “pH, % Increment over baseline” value [2, 6] was 2%, the “Volume, % Inhibition” value [2, 7] was 30% and the “Acid Conc., % Inhibition (calculated from μ Eq/ml of total acid concentration)” value [2, 8] was 11%. The “Acid Output, % Inhibition (calculated from μ Eq/10 min period of total acid output)” value [2, 8] was 15%, the “Volume, % Inhibition” value [2, 8] was 4% and the “pH, % Increment over baseline” value [2, 8] was 2%. For the same compound, the “Acid Conc., % Inhibition (calculated from μ Eq/ml of total acid concentration)” value [2, 9] was 2%, the “Acid Output, % Inhibition (calculated from μ Eq/10 min period of total acid output)” value [2, 9] was 14% and the “Volume, % Inhibition” value [2, 9] was 11%. For the same compound, the “pH, % Increment over baseline” value [2, 9] was 2%, the “Acid Conc., % Inhibition (calculated from μ Eq/ml of total acid concentration)” value [2, 10] was 15% and the “Acid Output, % Inhibition (calculated from μ Eq/10 min period of total acid output)” value [2, 10] was 20%. For the same compound, the “Volume, % Inhibition” value [2, 10] was 16%, the “pH, % Increment over baseline” value [2, 10] was 2% and the “Acid Conc., % Inhibition (calculated from μ Eq/ml of total acid concentration)” value [2, 11] was 19%. For the same compound, the “Acid Output, % Inhibition (calculated from μ Eq/10 min period of total acid output)” value [2, 11] was 48%, the “pH, % Increment over baseline” value [2, 11] was 5% and the “Volume, % Inhibition” value [2, 12] was 35%.
